# Test results: patent publication US11254686B1 (Corvus Pharmaceuticals, Inc., priority 2017, dated 2022)
# What was measured:
# [1] = biological target: adenosine A2B receptor (Homo sapiens (Human), UniProt P29275); experiment: Adenosine receptor activity assay (Table 1), A2B activity; assay type: biochemical; conditions: for IC50: read-out: Ave A2B cAMP IC50
# [2] = biological target: adenosine A2A receptor (Homo sapiens (Human), UniProt P29274); experiment: Adenosine receptor activity assay (Table 1), A2A activity; assay type: biochemical; conditions: read-out: Ave A2A cAMP IC50
# [3] = A2A activity to the A2B activity, A2A/A2B
# [4] = A2A activity to A2B activity (A2A/A2B)
# adenosine A2A receptor, sequence (P29274 whole entry): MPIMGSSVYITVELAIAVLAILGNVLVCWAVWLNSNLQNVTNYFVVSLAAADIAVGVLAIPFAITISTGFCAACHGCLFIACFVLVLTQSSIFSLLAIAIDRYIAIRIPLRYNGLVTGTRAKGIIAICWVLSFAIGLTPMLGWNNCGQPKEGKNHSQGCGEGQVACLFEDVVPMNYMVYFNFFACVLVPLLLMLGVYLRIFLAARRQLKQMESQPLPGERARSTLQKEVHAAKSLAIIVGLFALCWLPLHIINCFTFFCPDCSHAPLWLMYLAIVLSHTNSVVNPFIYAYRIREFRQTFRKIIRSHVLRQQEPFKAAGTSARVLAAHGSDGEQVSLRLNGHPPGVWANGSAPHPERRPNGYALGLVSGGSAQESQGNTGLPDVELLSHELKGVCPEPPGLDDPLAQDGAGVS
# adenosine A2B receptor, sequence (P29275 whole entry): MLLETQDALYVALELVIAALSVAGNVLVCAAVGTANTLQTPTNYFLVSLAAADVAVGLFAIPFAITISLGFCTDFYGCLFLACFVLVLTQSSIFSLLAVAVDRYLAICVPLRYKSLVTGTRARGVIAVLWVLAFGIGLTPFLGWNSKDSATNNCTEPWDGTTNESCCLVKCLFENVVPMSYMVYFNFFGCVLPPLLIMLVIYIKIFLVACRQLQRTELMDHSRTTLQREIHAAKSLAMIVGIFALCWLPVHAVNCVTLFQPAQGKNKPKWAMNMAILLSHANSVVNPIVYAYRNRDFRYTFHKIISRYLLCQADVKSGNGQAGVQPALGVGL
Compound,"Ratio [1, 3]",IC50 [1],IC50 [2],"Ratio [1, 4]"
"COC[C@H]1CCN1C(=O)c1nc(N[C@@H](C)c2cncc(F)c2)nc2cc(C)sc12 [Example Z570, (2-(((S)-1-(5-Fluoropyridin-3-yl)ethyl)amino)-6-methylthieno[3,2-d]pyrimidin-4-yl)((R)-2-(methoxymethyl)azetidin-1-yl)methanone]",84.36,10 to 50 nM,> 500 nM,
"COC[C@@H]1CCN1C(=O)c1nc(N[C@@H](C)c2cncc(F)c2)nc2cc(C)sc12 [Example Z569, (2-(((S)-1-(5-Fluoropyridin-3-yl)ethyl)amino)-6-methylthieno[3,2-d]pyrimidin-4-yl)((S)-2-(methoxymethyl)azetidin-1-yl)methanone]",40.75,100 to 500 nM,> 500 nM,
"C[C@H](Nc1nc(C(=O)NCCC2CCN(C(=O)OC(C)(C)C)C2)c2sccc2n1)c1ccccn1 (stereo partly drawn) [Example Z425, tert-Butyl 3-(2-(2-(((S)-1-(pyridin-2-yl)ethyl)amino)thieno[3,2-d]pyrimidine-4-carboxamido)ethyl)pyrrolidine-1-carboxylate]",0.82,100 to 500 nM,50 to 100 nM,
"COC1(C)CN(C(=O)c2nc(N[C@@H](C)c3ccccn3)nc3ccsc23)C1 [Example Z486, (S)-(3-Methoxy-3-methylazetidin-1-yl)(2-((1-(pyridin-2-yl)ethyl)amino)thieno[3,2-d]pyrimidin-4-yl)methanone]",10.58,50 to 100 nM,> 500 nM,
"O=C(NCCn1ccnc1)c1nc(NCc2cncc(F)c2)nc2ccsc12 [Example Z85, N-(2-(1H-Imidazol-1-yl)ethyl)-2-(((5-fluoropyridin-3-yl)methyl)amino)thieno[3,2-d]pyrimidine-4-carboxamide]",,> 500 nM,> 500 nM,1.04
"C[C@H](Nc1nc(C(=O)NC2CN(C(=O)OC(C)(C)C)C2)c2sccc2n1)c1ccccn1 [Example Z179, tert-Butyl (S)-3-(2-((1-(pyridin-2-yl)ethyl)amino)thieno[3,2-d]pyrimidine-4-carboxamido)azetidine-1-carboxylate]",,50 to 100 nM,50 to 100 nM,1.09
"CC(=O)N[C@@H]1CCN(C(=O)c2nc(N[C@@H](C)c3cncc(F)c3)nc3ccsc23)C1 [Example Z319, N—((R)-1-(2-(((S)-1-(5-Fluoropyridin-3-yl)ethyl)amino)thieno[3,2-d]pyrimidine-4-carbonyl)pyrrolidin-3-yl)acetamide]",,50 to 100 nM,> 500 nM,22.72
"Cc1cc2nc(N[C@@H](C)c3cccnc3)nc(C(=O)NCC3CCOCC3)c2s1 [Example Z375, (S)-6-Methyl-2-((1-(pyridin-3-yl)ethyl)amino)-N-((tetrahydro-2H-pyran-4-yl)methyl)thieno[3,2-d]pyrimidine-4-carboxamide]",,10 to 50 nM,100 to 500 nM,7.89
"C[C@H](Nc1nc(C(=O)N2CCCC2)c2sccc2n1)c1ccncc1 [Example Z344, (S)-(2-((1-(Pyridin-4-yl)ethyl)amino)thieno[3,2-d]pyrimidin-4-yl)(pyrrolidin-1-yl)methanone]",,10 to 50 nM,100 to 500 nM,8.03
"C[C@H](Nc1nc(C(=O)N2CC[C@@H](O)C2)c2sc(N)cc2n1)c1ccccn1 [Example Z208, (6-Amino-2-(((S)-1-(pyridin-2-yl)ethyl)amino)thieno[3,2-d]pyrimidin-4-yl)((R)-3-hydroxypyrrolidin-1-yl)methanone]",,50 to 100 nM,> 500 nM,18.79
"O=C(c1nc(NCCc2ccc(O)cc2)nc2ccsc12)N1CCCC1 [Example Z359, (2-((4-Hydroxyphenethyl)amino)thieno[3,2-d]pyrimidin-4-yl)(pyrrolidin-1-yl)methanone]",,100 to 500 nM,100 to 500 nM,2.57
"C[C@H](O)CNC(=O)c1nc(NCc2cncc(C(F)(F)F)c2)nc2ccsc12 [Example Z265, (S)—N-(2-Hydroxypropyl)-2-(((5-(trifluoromethyl)pyridin-3-yl)methyl)amino)thieno[3,2-d]pyrimidine-4-carboxamide]",,100 to 500 nM,> 500 nM,16.94
"CCC(NC(=O)c1nc(N[C@@H](C)c2cccnc2)nc2ccsc12)c1cccnc1 (stereo partly drawn) [Example Z24, 2-(((S)-1-(Pyridin-3-yl)ethyl)amino)-N-(1-(pyridin-3-yl)propyl)thieno[3,2-d]pyrimidine-4-carboxamide]",,100 to 500 nM,> 500 nM,2.92
"CC(CNC(=O)c1nc(N[C@@H](C)c2ccccn2)nc2ccsc12)Oc1cccnc1 (stereo partly drawn) [Example Z77, 2-(((S)-1-(Pyridin-2-yl)ethyl)amino)-N-(2-(pyridin-3-yloxy)propyl)thieno[3,2-d]pyrimidine-4-carboxamide]",,100 to 500 nM,100 to 500 nM,3.77
"Cc1cc2nc(N[C@@H](C)c3cccnc3)nc(C(=O)NCc3ccccn3)c2s1 [Example Z457, (S)-6-Methyl-N-(pyridin-2-ylmethyl)-2-((1-(pyridin-3-yl)ethyl)amino)thieno[3,2-d]pyrimidine-4-carboxamide]",2.73,50 to 100 nM,100 to 500 nM,
"C[C@H](Nc1nc(C(=O)NC2CNC2)c2sccc2n1)c1cncc(F)c1 [Example Z397, (S)—N-(Azetidin-3-yl)-2-((1-(5-fluoropyridin-3-yl)ethyl)amino)thieno[3,2-d]pyrimidine-4-carboxamide]",,> 500 nM,> 500 nM,11.51
"C[C@H](Nc1nc(C(=O)N2CC(O)C2)c2sc(N)cc2n1)c1cccnc1 [Example Z248, (S)-(6-Amino-2-((1-(pyridin-3-yl)ethyl)amino)thieno[3,2-d]pyrimidin-4-yl)(3-hydroxyazetidin-1-yl)methanone]",,50 to 100 nM,> 500 nM,15.23
"CCC(Nc1nc(C(=O)N2CCCC2)c2sccc2n1)c1cccnc1 (centres unmarked) [Example Z25, (2-((1-(Pyridin-3-yl)propyl)amino)thieno[3,2-d]pyrimidin-4-yl)(pyrrolidin-1-yl)methanone]",,10 to 50 nM,100 to 500 nM,
"COc1ccc(CNC(=O)c2nc(N[C@@H](C)c3cccnc3)nc3ccsc23)cc1OC [Example Z33, (S)—N-(3,4-Dimethoxybenzyl)-2-((1-(pyridin-3-yl)ethyl)amino)thieno[3,2-d]pyrimidine-4-carboxamide]",,> 500 nM,> 500 nM,4.57
"O=C(c1nc(NCc2cncc(C(F)(F)F)c2)nc2ccsc12)N1CCC1 [Example Z257, Azetidin-1-yl(2-(((5-(trifluoromethyl)pyridin-3-yl)methyl)amino)thieno[3,2-d]pyrimidin-4-yl)methanone]",,50 to 100 nM,> 500 nM,9.16
"CC(C)NC(=O)N1CCN(C(=O)c2nc(N[C@@H](C)c3cncc(F)c3)nc3ccsc23)C1 [Example Z587, (S)-3-(2-((1-(5-Fluoropyridin-3-yl)ethyl)amino)thieno[3,2-d]pyrimidine-4-carbonyl)-N-isopropylimidazolidine-1-carboxamide]",1.63,50 to 100 nM,100 to 500 nM,
"O=C(c1nc(NCc2cc(F)cc(F)c2)nc2ccsc12)N1CCC1 [Example Z168, Azetidin-1-yl(2-((3,5-difluorobenzyl)amino)thieno[3,2-d]pyrimidin-4-yl)methanone]",,10 to 50 nM,100 to 500 nM,36.14
"COc1ccc([C@H](C)Nc2nc(C(=O)N3CC(NC(=O)OC(C)C)C3)c3sc(C)cc3n2)cc1 [Example Z555, Isopropyl (S)-(1-(2-((1-(4-methoxyphenyl)ethyl)amino)-6-methylthieno[3,2-d]pyrimidine-4-carbonyl)azetidin-3-yl)carbamate]",0.18,100 to 500 nM,50 to 100 nM,
"Cc1cc2nc(N[C@@H](C)c3cccnc3)nc(C(=O)N3CC(CN(C)C)C3)c2s1 [Example Z516, (S)-(3-((Dimethylamino)methyl)azetidin-1-yl)(6-methyl-2-((1-(pyridin-3-yl)ethyl)amino)thieno[3,2-d]pyrimidin-4-yl)methanone]",8.08,> 500 nM,> 500 nM,
"C[C@H](Nc1nc(C(=O)N2CCNC2)c2sccc2n1)c1cncc(F)c1 [Example Z381, (S)-(2-((1-(5-Fluoropyridin-3-yl)ethyl)amino)thieno[3,2-d]pyrimidin-4-yl)(imidazolidin-1-yl)methanone]",,10 to 50 nM,> 500 nM,47.20
"C[C@H](Nc1nc(C(=O)N2CCN(C(=O)OC(C)(C)C)C2)c2sccc2n1)c1cccnc1 [Example Z140, tert-Butyl (S)-3-(2-((1-(pyridin-3-yl)ethyl)amino)thieno[3,2-d]pyrimidine-4-carbonyl)imidazolidine-1-carboxylate]",,> 500 nM,> 500 nM,1.36
"C[C@@H](O)CNC(=O)c1nc(NCc2cncc(C(F)(F)F)c2)nc2ccsc12 [Example Z266, (R)—N-(2-Hydroxypropyl)-2-(((5-(trifluoromethyl)pyridin-3-yl)methyl)amino)thieno[3,2-d]pyrimidine-4-carboxamide]",,100 to 500 nM,> 500 nM,34.17
"CS(=O)(=O)[C@@H]1CCN(C(=O)c2nc(NCc3cncc(F)c3)nc3ccsc23)C1 [Example Z261, (R)-(2-(((5-Fluoropyridin-3-yl)methyl)amino)thieno[3,2-d]pyrimidin-4-yl)(3-(methylsulfonyl)pyrrolidin-1-yl)methanone]",,100 to 500 nM,> 500 nM,10.23
"(6-Amino-2-(((S)-1-(pyridin-2-yl)ethyl)amino)thieno[3,2-d]pyrimidin-4-yl)((R)-3-fluoropyrrolidin-1-yl)methanone [Example Z174]",,10 to 50 nM,100 to 500 nM,15.05
